Results reported in US20080275085A1, “Piperidine derivative and use thereof” (priority 2007, published 2008).
Counter-ions that a name gives are not always drawn.

These molecules were tested against T1, substance P receptor (Homo sapiens, UniProt P25103) (assay: Radioligand receptor binding inhibitory activity (125I-BHSP binding, receptor from IM-9 cells)). Settings: receptor from human lymphoblast cells (IM-9); radioligand 125I-BHSP; 25° C., 30 min.
T1 construct: The receptor was prepared from human lymphoblast cells (IM-9); endogenous in cells; host or cells: IM-9 human lymphoblast cells (membrane fraction, 100,000xG precipitate)
Experimental: Radioligand Receptor Binding Inhibitory Activity (Binding Inhibitory Activity Using Receptor from Human Lymphoblast Cells (IM-9))
The method of M. A. Cascieri et al., “Molecular Pharmacology, vol. 42, p. 458 (1992)” was modified and used. The receptor was prepared from human lymphoblast cells (IM-9).
IM-9 cells (2×10^5 cells/mL) were inoculated and incubated for 3 days, which was then subjected to centrifugation for 10 min. at 500×G to give cell pellets. The obtained pellets were washed with PBS (GIBCO), disrupted in buffer A (50 mM tris.hydrochloric acid buffer (pH 7.4) containing 120 mM sodium chloride, 5 mM potassium chloride, 2 μg/mL chymostatin, 40 μg/mL bacitracin, 40 μg/mL APMSF, 1 mM ethylenediamine tetra acetic acid) using a polytron.homogenizer [manufactured by Kinematika, Germany], and centrifuged at 100,000×G for 40 min. The precipitated fraction was suspended in buffer B (50 mM Tris-HCl (pH 7.4), 0.02% bovine serum albumin, 2 μg/mL chymostatin, 40 μg/mL bacitracin, 40 μg/mL APMSF, 3 mM MgCl2), which was then cryopreserved (−80° C.) as a receptor specimen.
Buffer B (50 μL) was added to a 96 well microassay plate (CORNING). Thereto was added 50 μL of membrane preparation suspended in buffer B at 250 μg/mL. A measurement buffer (50 μL) containing 2% dimethyl sulfoxide was added to examine total binding; 4 μM unlabeled SP (50 μL) diluted with a measurement buffer containing 2% dimethyl sulfoxide was added to examine non-specific binding; and 50 μL of a test compound (containing 2% dimethyl sulfoxide) diluted with a measurement buffer was added to examine binding inhibitory activity of the test compound. In addition, […] ^125I-BHSP solution (50 μL) was added to each well.
After reaction at 25° C. for 30 min, the cells were rapidly filtered through a GF/C filter plate (PerkinElmer) using a cell harvester (manufactured by PerkinElmer) to quench the reaction, and washed 10 times with 250 μL of 50 mM tris-HCl buffer (pH 7.4) containing 0.02% bovine serum albumin. The GF/C filter plate was dried, MicroScinti 0 (20 μL) was added, and the radioactivity was measured with TopCount (manufactured by PerkinElmer). The GF/C filter plate was immersed in 0.3% polyethylene imine for one day before use.
Specific binding is a value obtained by subtracting nonspecific binding from total binding. The binding inhibitory activity of a test compound is shown by a ratio of a value obtained by subtracting a measurement value with addition of a test compound from the total binding, relative to specific binding.
The antagonistic activity of the compounds obtained in the Examples was determined as a concentration necessary for causing 50% inhibition (IC50 value) under the above-described conditions, and the results shown in Table 34 were obtained.
The radio ligand means substance P labeled with [^125I].

T1 sequence (P25103 whole entry): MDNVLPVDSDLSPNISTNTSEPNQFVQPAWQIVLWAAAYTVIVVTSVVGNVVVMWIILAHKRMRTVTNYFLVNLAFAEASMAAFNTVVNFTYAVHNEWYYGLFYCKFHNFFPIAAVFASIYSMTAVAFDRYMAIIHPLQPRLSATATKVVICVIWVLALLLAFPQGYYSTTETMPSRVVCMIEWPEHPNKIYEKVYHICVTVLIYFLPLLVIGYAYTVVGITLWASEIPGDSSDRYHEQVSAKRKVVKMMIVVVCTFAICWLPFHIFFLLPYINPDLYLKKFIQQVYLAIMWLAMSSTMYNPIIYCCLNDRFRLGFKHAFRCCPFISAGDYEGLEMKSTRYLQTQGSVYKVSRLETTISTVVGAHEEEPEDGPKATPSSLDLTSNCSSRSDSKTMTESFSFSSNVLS

Row | IC50 [nM] | SMILES
1 | 0.024 | Cc1ccccc1[C@H]1CN(C(=O)C2CCN(C(=O)CO)CC2)CC[C@@H]1C(=O)N(C)Cc1cc(C(F)(F)F)cc(C(F)(F)F)c1 [Example 18, (3S,4S)—N-[3,5-bis(trifluoromethyl)benzyl]-1-[[1-glycoloylpiperidin-4-yl]carbonyl]-N-methyl-3-(2-methylphenyl)piperidine-4-carboxamide]
2 | 0.023 | Cc1ccccc1[C@H]1CN(C(=O)C2CCN(C(=O)[C@@H](C)O)CC2)CC[C@@H]1C(=O)N(C)Cc1cc(C(F)(F)F)cc(C(F)(F)F)c1 [Example 29, (3S,4S)—N-[3,5-bis(trifluoromethyl)benzyl]-1-({1-[(2R)-2-hydroxypropanoyl]piperidin-4-yl}carbonyl)-N-methyl-3-(2-methylphenyl)piperidine-4-carboxamide]
3 | 0.037 | Cc1cc(F)ccc1[C@@H]1CN(S(=O)(=O)CCN2CCOCC2)CC[C@H]1C(=O)N(C)Cc1cc(C(F)(F)F)cc(C(F)(F)F)c1 (relative stereo) [Example 139, (3R*,4R*)—N-[3,5-bis(trifluoromethyl)benzyl]-3-(4-fluoro-2-methylphenyl)-N-methyl-1-[(2-morpholin-4-ylethyl)sulfonyl]piperidine-4-carboxamide monohydrochloride]
4 | 0.043 | Cc1cc(F)ccc1[C@@H]1CN(C(C)CO)CC[C@H]1C(=O)N(C)Cc1cc(C(F)(F)F)cc(C(F)(F)F)c1 (relative stereo) [Example 120, (3R*,4R*)—N-[3,5-bis(trifluoromethyl)benzyl]-3-(4-fluoro-2-methylphenyl)-1-(2-hydroxy-1-methylethyl)-N-methylpiperidine-4-carboxamide monohydrochloride]
5 | 0.038 | Cc1cc(F)ccc1[C@@H]1CN(CC(N)=O)CC[C@H]1C(=O)N(C)Cc1cc(C(F)(F)F)cc(C(F)(F)F)c1 (relative stereo) [Example 112, (3R*,4R*)-1-(2-amino-2-oxoethyl)-N-[3,5-bis(trifluoromethyl)benzyl]-3-(4-fluoro-2-methylphenyl)-N-methylpiperidine-4-carboxamide monohydrochloride]
6 | 0.023 | Cc1cc(F)ccc1[C@H]1CN(CCS(C)(=O)=O)CC[C@@H]1C(=O)N(C)[C@@H](C)c1cc(C(F)(F)F)cc(C(F)(F)F)c1 [Example 180, (3S,4S)—N-{(1S)-1-[3,5-bis(trifluoromethyl)phenyl]ethyl}-3-(4-fluoro-2-methylphenyl)-N-methyl-1-[2-(methylsulfonyl)ethyl]piperidine-4-carboxamide monohydrochloride]
7 | 0.096 | Cc1cc(F)ccc1[C@@H]1CN(CC(=O)NC2CC2)CC[C@H]1C(=O)N(C)Cc1cc(C(F)(F)F)cc(C(F)(F)F)c1 (relative stereo) [Example 103, (3R*,4R*)—N-[3,5-bis(trifluoromethyl)benzyl]-1-[2-(cyclopropylamino)-2-oxoethyl]-3-(4-fluoro-2-methylphenyl)-N-methylpiperidine-4-carboxamide monohydrochloride]
8 | 0.017 | Cc1cc(F)ccc1[C@H]1CN(C(=O)C(N)=O)CC[C@@H]1C(=O)N(C)[C@@H](C)c1cc(C(F)(F)F)cc(C(F)(F)F)c1 [Example 178, (3S,4S)-1-[amino(oxo)acetyl]-N-{(1S)-1-[3,5-bis(trifluoromethyl)phenyl]ethyl}-3-(4-fluoro-2-methylphenyl)-N-methylpiperidine-4-carboxamide]
9 | 0.042 | Cc1cc(F)ccc1[C@@H]1CN(CC(=O)N2CCC(O)CC2)CC[C@H]1C(=O)N(C)Cc1cc(C(F)(F)F)cc(C(F)(F)F)c1 (relative stereo) [Example 104, (3R*,4R*)—N-[3,5-bis(trifluoromethyl)benzyl]-3-(4-fluoro-2-methylphenyl)-1-[2-(4-hydroxypiperidin-1-yl)-2-oxoethyl]-N-methylpiperidine-4-carboxamide monohydrochloride]
10 | 0.095 | CC(=O)Nc1ccc(N2CC[C@@H](C(=O)N(C)Cc3cc(C(F)(F)F)cc(C(F)(F)F)c3)[C@H](c3ccc(F)cc3C)C2)nc1 (relative stereo) [Example 129, (3R*,4R*)-1-[5-(acetylamino)pyridin-2-yl]-N-[3,5-bis(trifluoromethyl)benzyl]-3-(4-fluoro-2-methylphenyl)-N-methylpiperidine-4-carboxamide monohydrochloride]
11 | 0.097 | Cc1cc(F)ccc1[C@H]1CN(C(=O)CN2C(=O)OC(C)(C)C2=O)CC[C@@H]1C(=O)N(C)[C@@H](C)c1cc(C(F)(F)F)cc(C(F)(F)F)c1 [Example 154, (3S,4S)—N-{(1S)-1-[3,5-bis(trifluoromethyl)phenyl]ethyl}-1-[(5,5-dimethyl-2,4-dioxo-1,3-oxazolidin-3-yl)acetyl]-3-(4-fluoro-2-methylphenyl)-N-methylpiperidine-4-carboxamide]
12 | 0.077 | Cc1cc(F)ccc1[C@@H]1CN(CC(N)=O)CC[C@H]1C(=O)N(Cc1cc(C(F)(F)F)cc(C(F)(F)F)c1)C1CC1 (relative stereo) [Example 169, (3R*,4R*)-1-(2-amino-2-oxoethyl)-N-[3,5-bis(trifluoromethyl)benzyl]-N-cyclopropyl-3-(4-fluoro-2-methylphenyl)piperidine-4-carboxamide monohydrochloride]
13 | 0.049 | Cc1cc(F)ccc1[C@H]1CN(S(C)(=O)=O)CC[C@@H]1C(=O)N(C)[C@@H](C)c1cc(C(F)(F)F)cc(C(F)(F)F)c1 [Example 179, (3S,4S)—N-{(1S)-1-[3,5-bis(trifluoromethyl)phenyl]ethyl}-3-(4-fluoro-2-methylphenyl)-N-methyl-1-(methylsulfonyl)piperidine-4-carboxamide]
14 | 0.026 | Cc1cc(F)ccc1[C@@H]1CN(C2CCN(C(=O)C(N)=O)CC2)CC[C@H]1C(=O)N(C)Cc1cc(C(F)(F)F)cc(C(F)(F)F)c1 (relative stereo) [Example 108, (3R*,4R*)-1′-[amino(oxo)acetyl]-N-[3,5-bis(trifluoromethyl)benzyl]-3-(4-fluoro-2-methylphenyl)-N-methyl-1,4′-bipiperidine-4-carboxamide monohydrochloride]
15 | 0.033 | Cc1cc(F)ccc1[C@H]1CN(C(=O)c2cncnc2)CC[C@@H]1C(=O)N(C)[C@@H](C)c1cc(C(F)(F)F)cc(C(F)(F)F)c1 [Example 158, (3S,4S)—N-{(1S)-1-[3,5-bis(trifluoromethyl)phenyl]ethyl}-3-(4-fluoro-2-methylphenyl)-N-methyl-1-(pyrimidin-5-ylcarbonyl)piperidine-4-carboxamide]
16 | 0.023 | Cc1cc(F)ccc1[C@@H]1CN(C2CCN(C(N)=O)CC2)CC[C@H]1C(=O)N(C)Cc1cc(C(F)(F)F)cc(C(F)(F)F)c1 (relative stereo) [Example 109, (3R*,4R*)—N^4-[3,5-bis(trifluoromethyl)benzyl]-3-(4-fluoro-2-methylphenyl)-N^4-methyl-1,4′-bipiperidine-1′,4-dicarboxamide monohydrochloride]
17 | 0.057 | Cc1ccccc1[C@H]1CN(C(=O)CN2C(=O)OC(C)(C)C2=O)CC[C@@H]1C(=O)N(C)[C@@H](C)c1cc(C(F)(F)F)cc(C(F)(F)F)c1 [Example 30, (3S,4S)—N-{(1S)-1-[3,5-bis(trifluoromethyl)phenyl]ethyl}-1-[(5,5-dimethyl-2,4-dioxo-1,3-oxazolidin-3-yl)acetyl]-N-methyl-3-(2-methylphenyl)piperidine-4-carboxamide]
18 | 0.06 | Cc1cc(F)ccc1[C@H]1CN(C(=O)CN2C(=O)OC(C)(C)C2=O)CC[C@@H]1C(=O)N(C)Cc1cc(C(F)(F)F)cc(C(F)(F)F)c1 [Example 148, (3S,4S)—N-[3,5-bis(trifluoromethyl)benzyl]-1-[(5,5-dimethyl-2,4-dioxo-1,3-oxazolidin-3-yl)acetyl]-3-(4-fluoro-2-methylphenyl)-N-methylpiperidine-4-carboxamide]
19 | 0.061 | Cc1cc(F)ccc1[C@@H]1CN(C(C)(C)C(N)=O)CC[C@H]1C(=O)N(C)Cc1cc(C(F)(F)F)cc(C(F)(F)F)c1 (relative stereo) [Example 113, (3R*,4R*)-1-(2-amino-1,1-dimethyl-2-oxoethyl)-N-[3,5-bis(trifluoromethyl)benzyl]-3-(4-fluoro-2-methylphenyl)-N-methylpiperidine-4-carboxamide monohydrochloride]
